Experimental data reported in US20170216288A1, “IMMUNOPOTENTIATOR POTENTIATING TUMOR IMMUNITY OR INFECTION IMMUNITY” (priority 2014, published 2017).

Legend:
[1] = test system: effector Tregs; test: Effector Tregs after imatinib addition and antigen stimulation, healthy donor peripheral blood; format: cell-based, human; conditions: imatinib 5 uM, 1 day, then antigen 10 uM, 10 days; healthy donors HD1-HD3
[2] = test system: CD45RA-FoxP3high cells (fraction II: effector Tregs); test: Ki-67 expression in effector Tregs cultured in the presence of imatinib (FACS); format: cell-based, human; conditions: imatinib 10 uM, cultured 4 days
[3] = test system: influenza virus-specific CD8+ T cells; test: Influenza virus-specific CD8+ T cell induction, healthy donor peripheral blood (tetramer); format: cell-based, human; conditions: imatinib 5 uM, then influenza virus antigen peptide 10 uM
Description: Specifically, analysis on specific CD8^+ T cell induction was performed as in Test Example 6 above, except that instead of cytomegalovirus antigen, an influenza virus antigen peptide was added at a concentration of 10 μM to stimulate the cells, and that influenza-specific tetramer was used.

[4] = test system: Melan-A-specific CD8+ T cells; test: Specific CD8+ T cell induction, malignant melanoma patient peripheral blood (tetramer); format: cell-based, human; conditions: imatinib 5 uM, 1 day, then Melan-A 10 uM, 10 days; melanoma patients Pt1-Pt3
Description: (§1) […]. Initially, Gleevec (Novartis Pharma K.K.; […]. Subsequently, cancer antigen (Melan-A) was added at a concentration of 10 μM to stimulate the cells, and the cells were cultured at 37° C. for 10 days. After the culture, the number of effector Tregs was measured as in Test Example 1 above. In addition, after the culture, analysis with the tetramer was performed as in Test Example 6 above to examine specific CD8^+ T cell induction.

[5] = test system: CD45RA-FoxP3high cells (fraction II: effector Tregs); test: Apoptosis of fractionated T cells cultured with imatinib (Annexin V and 7-AAD); format: cell-based, human; conditions: effector Tregs of a healthy donor, cultured 5 days at 37 C
[6] = test system: effector Tregs; test: Effector Tregs after imatinib addition and Melan-A stimulation, malignant melanoma patient peripheral blood; format: cell-based, human; conditions: imatinib 5 uM, 1 day, then Melan-A 10 uM, 10 days; melanoma patients Pt1-Pt3
Description: as §1

[7] = test system: Ki-67+ Treg cells; test: Inhibitory action upon Treg cells in vivo, FACS of spleen cells of BALB/c mice; conditions: 2 mg or 8 mg imatinib once a day for 1 week, orally or intraperitoneally
Description: The expression of Foxp3 and CD25 in CD4^+ T cells and the expression of Ki-67 and CD44 in CD4^+Foxp3^+ T cells were analyzed by FACS.

[8] = test system: Tregs in the peripheral blood; test: Proportion of Tregs in peripheral blood of chronic myelogenous leukemia patients treated with Gleevec (FACS, CD45RA/FoxP3); format: in vivo, human; conditions: peripheral blood after treatment
Description: Specifically, peripheral blood mononuclear cells in the peripheral blood were harvested, CD4^+ cells were gated using anti-CD4 antibody labeled with BD Horizon V500, and the cells were stained with FITC-labeled anti-CD45RA antibody and PE-labeled anti-FoxP3 antibody. Subsequently, CD45RA and FoxP3 expression levels were measured by FACS analysis. For comparison, the proportion of Tregs in the peripheral blood of a healthy donor was similarly measured.
In FIG. 1, fraction I (CD45RA^+FoxP3^low) represents naive Tregs, fraction II (CD45RA^−FoxP3^high) represents effector Tregs, and fraction III (CD45RA^−FoxP3^low) represents non-suppressive Tregs.

[9] = test system: Melan A-specific CD8+ T cells; test: Melan-A-specific CD8+ T cell induction, healthy donor peripheral blood (tetramer); format: cell-based, human; conditions: imatinib 5 uM, 1 day, then Melan-A 10 uM, 10 days; healthy donors
[10] = test system: Caspase 3/7; test: Caspase 3/7 activation in T cell fractions cultured with imatinib under anti-CD3/anti-CD28 stimulation; format: cell-based, human; conditions: imatinib 10 uM, 4 days, anti-CD3/anti-CD28 beads; effector Treg-specific
Description: […]; Novartis Pharma K.K.; […]. After the culture, the activation level of Caspase 3/7 in T cells of each fraction was measured using CellEvent Caspase 3/7 green and SYTOX AADvanced. […].
In FIG. 18, the vertical axis represents the proportion (%) of T cells having activated Caspase 3/7. […]

[11] = test system: cytomegalovirus-specific CD8+ T cells; test: Cytomegalovirus-specific CD8+ T cell induction, healthy donor peripheral blood (tetramer); format: cell-based, human; conditions: imatinib 5 uM, then cytomegalovirus antigen 10 uM, 10 days; healthy donor HD1
[12] = test system: effector Tregs in the peripheral blood; test: Proportion of effector Tregs in peripheral blood of patients switched from Gleevec to nilotinib; format: in vivo, human; conditions: three patients (Cases 1, 2 and 3), CMR state after switching to nilotinib
[13] = test system: BCR-ABL; conditions: cited from earlier work
[14] = test system: leukemic cells bearing Bcr-Abl gene; test: Molecular response of chronic myelogenous leukemia patients switched to nilotinib; conditions: three patients in which CMR was not achieved by Gleevec

Compound | number of effector Tregs [1] | expression level of Ki-67 in effector Tregs [2] | influenza virus-specific CD8+ T cell induction [3] | specific CD8+ T cell induction (immune responses against malignant melanoma) [4] | proportion of apoptotic cells [5] | number of effector Tregs [6] | expression of Ki-67 and CD44 in CD4+Foxp3+ T cells of spleen [7] | naive Tregs (fraction I) in CD4+ cells ([8]; CMR patients (49)) | proportion of effector Tregs (fraction II) in CD4+ cells ([8]; CMR patients (49)) | naive Tregs (fraction I) in CD4+ cells ([8]; Non-CMR patients (38)) | proportion of effector Tregs (fraction II) in CD4+ cells ([8]; Non-CMR patients (38)) | Melan-A-specific CD8+ T cell induction [9] | proportion (%) of T cells having activated Caspase 3/7 [10] | cytomegalovirus-specific CD8+ T cell induction [11] | proportion of effector Tregs in the peripheral blood [12] | affinity for BCR-ABL relative to imatinib [13] | complete molecular response (CMR) [14]
Cc1ccc(NC(=O)c2ccc(CN3CCN(C)CC3)cc2)cc1Nc1nccc(-c2cccnc2)n1 [imatinib] | induces a reduction in effector Tregs | selectively reduced | potentiates the induction of influenza virus-specific CD8^+ T cells | activation of immune responses against malignant melanoma | increases the proportion of apoptotic cells | induces a reduction in effector Tregs | selectively inhibits Ki-67^+ Treg cells | reduction in naive Tregs | significant reduction in the proportion of effector Tregs | no reduction in naive Tregs | no reduction in the proportion of effector Tregs | potentiation of Melan-A-specific CD8^+ T cell induction | activates Caspase 3/7 | potentiated the induction of cytomegalovirus-specific CD8^+ T cells |  |  | 
Cc1cn(-c2cc(NC(=O)c3ccc(C)c(Nc4nccc(-c5cccnc5)n4)c3)cc(C(F)(F)F)c2)cn1 [nilotinib] |  |  |  |  |  |  |  |  |  |  |  |  |  |  | a reduction in effector Tregs was not observed | higher affinity for BCR-ABL than that of imatinib | CMR was achieved
